# Test results as given in PMC8386742, “Discovery of N-aryl sulphonamide-quinazoline derivatives as anti-gastric cancer agents in vitro and in vivo via activating the Hippo signalling pathway” (Journal of Enzyme Inhibition and Medicinal Chemistry, 2021).
# How the values were obtained:
# Assay type in all cases: cell-based
# [1] = test system: HUEVC cells; assay: MTT antiproliferative assay, HUEVC normal cells; settings: exposure for 48 h, non-cancer cell line
# Method: Furthermore, MGC-803 cells were more sensitive to the compounds than HCT-116, PC-3 cells MCF-7 cells. Moreover, we chose two other common gastric cancer cell lines (HGC-27 and SGC-7901) and another two normal cells GES-1 and HUEVC cells to examine for the inhibitory activity of compound 9i.
# Cell lines used were cultured in humidified incubator in a humidified atmosphere of 5% CO2 and 95% air. The RPMI-1640 medium was supplemented with 10% foetal bovine serum, penicillin (100 U/ml) and streptomycin (0.1 mg/ml).
# Cell lines were seeded into 96-well plates and incubated for 24 h. Then cells were treated with different concentrations of compounds. And after another 48 h, MTT reagent (20 μL per well) was added to each well and then incubated at 37 °C for 4 h. After the suspension was discarded, formazan was then dissolved with DMSO. Absorbencies of formazan solution were measured at 490 nm. The IC50 values of tested compounds were calculated by SPSS version 17.0.
# [2] = test system: SGC-7901 cells; assay: Annexin V-FITC/PI cell apoptosis assay, SGC-7901 cells; settings: SGC-7901, high dose, 48 h
# Method: Bcl-2 regulated by the Hippo/YAP plays an important role in cell apoptosis. Therefore, we next examined the effects of compound 9i on cell apoptosis. MGC-803 and SGC-7901 cells were treated with compound 9i for 48 h, as shown in Figures 5(A,B), the nuclei of gastric cancer are dense and fragmented, and cells became round, small, and was induced to die. To determine the influence of compound 9i on cell death, MGC-803 and SGC-7901 cells treated with compound 9i were stained with Annexin V-FITC/PI. As shown in Figure 5(C), the high dose compound 9i treatment group induced over 60% of cell apoptosis at 48 h. As shown in Figure 5(D), some other apoptosis-related proteins were also regulated by compound 9i in MGC-803 and SGC-7901 cells. Compound 9i caused dose-dependent decreases of anti-apoptosis proteins c-IAP and Mcl-1. […] Mitochondrial membrane potential depolarisation and translocation from the mitochondria to the cytoplasm of cytochrome c are two key steps involved in the intrinsic apoptosis pathway. As shown in Figures 5(F–H), compound 9i depolarised mitochondrial membrane potential and induced the translocation of cytochrome c.
# Figure 5. Compound 9i induced apoptosis in MGC-803 and SGC-7901 cells. Density ratios relative to β-Actin were shown on the top of each Western blotting band. […] The cell line of each row appears only in tiny plot titles that cannot be read with certainty. […]
# [3] = test system: Hippo signalling pathway; assay: Western blotting / mRNA of Hippo related proteins in MGC-803 and SGC-7901 cells
# Source text: Phosphorylation of YAP is the process of YAP inactivation. YAP protein is inactivated (phosphorylated) by Hippo cascade pathway in cells. […] We also investigated the influence of 9i on upstream signal-regulated molecules of the Hippo pathway. […] Transcription factor TEAD interacts with YAP to express downstream substrates, the level of TEAD was not changed by compound 9i (Figures 4(A,B)). Yap entering the nucleus is a key step of substrates expression. With the treatment of compound 9i, the level of YAP inside nuclear was decreased (Figure 4(C)).
# Figure 4. Influence of 9i on the Hippo signalling pathway in two gastric cancer cells. Density ratios relative to its loading control protein (β-Actin/LaminB1/GAPDH) were shown on the top of each Western blotting band. (A) The levels of Hippo related proteins, cells were treated with indicated concentrations of 9i for 12 h; (B) The levels of Hippo related proteins in different hours after the treatment with 450 nM of 9i; (C) Level of YAP in the cytoplasm and nuclear, cells were treated for 12 h with 450 nM of 9i; (D) Levels of Bcl-2 and c-Myc in MGC-803 cells after the treatment with 450 nM of 9i for different hours; (E) mRNA levels of Bcl-2 and c-My in MGC-803 cells after the treatment with 450 nM of 9i 12 h. Data were presented as mean ± SD.
# 2 gastric cancer cells were seeded in dishes and treated with 9i or DMSO. After 48 h, MGC-803 and SGC-7901 cells were collected and then lysed. The denatured lysates of each groups were electrophoretic separated in SDS-PAGE. Proteins were then transferred onto PVDF membranes from gels. After blocking for 2 h, membranes were incubated with primary antibodies conjugation. Then, the membranes were washed and incubated with 2nd antibodies. At last, specific proteins were detected.
smiles,measurement,setting,value
"COc1ccc(S(=O)(=O)N(Cc2nc(C)c3ccccc3n2)c2cc(OC)c(OC)c(OC)c2)cc1 [Compound 9i, 4-Methoxy-N-((4-methylquinazolin-2-yl)methyl)-N-(3,4,5-trimethoxyphenyl) benzene-sulfonamide]",IC50,[1],26.2 µM
same,cell apoptosis,[2],over 60%
same,MST1 and SAV levels,[3]; MGC-803 and SGC-7901 cells,did not show an obvious change
same,level of TEAD,[3]; MGC-803 and SGC-7901 cells,not changed
same,level of YAP,[3]; MGC-803 and SGC-7901 cells,reduced level of YAP
same,p-LATS level,[3]; MGC-803 and SGC-7901 cells,up-regulated
same,phosphorylation of YAP,"[3]; MGC-803 and SGC-7901 cells, dose and time-dependent",up-regulated the phosphorylation of YAP
same,Bcl-2 and c-Myc expression,"[3]; two gastric cancer cells, mRNA and protein",down-regulated at mRNA and protein levels
